{"source": "paper PMC9586926", "about": "“An efflux-susceptible antibiotic-adjuvant with systemic efficacy against mouse infections” (Scientific Reports, 2022)", "key": {"[1]": {"tested_on": "murine RBC", "experiment": "Hemolysis", "type": "cell-based", "settings": "1% hematocrit murine RBC, 3 h, 37 °C", "procedure": "Permeabilization of red blood cells (RBC) was evaluated using absorbance measurements of extracellular hemoglobin. Serial twofold dilutions of lipopeptides were incubated with 1% hematocrit of murine RBC for 3 h at 37 °C with shaking. Samples were then centrifuged at 20,000 RCF for 5 min, and absorbance of the supernatants was measured at 450 nm (BioTek Instruments Synergy HT; Winooski, VT, USA). Percent hemolysis was then calculated by (AS − AN)/(AP − AN) × 100; where AS, AN, and AP represent the absorbance of the sample, negative control (PBS) and positive control (Milli-Q water), respectively. LC50 values were extracted from trend-lines generated for linear-regions of plots correlating lipopeptide concentrations and percent hemolysis."}, "[2]": {"tested_on": "E. coli 25922", "experiment": "Growth / time-kill kinetics", "type": "cell-based, Escherichia coli", "settings": "10 µM C10BBc12B, 1 µg/ml erythromycin or 20 ng/ml rifampin alone", "procedure": "Antimicrobials mode of action was determined according to the rate of bacterial killing. Varying concentrations of lipopeptides, antibiotics and combinations thereof were mixed in LB medium with 5 × 10^5 CFU/ml of bacteria (final volume of 1 ml) and incubated at 37 °C with shaking. At the designated time-points aliquots were serially tenfold diluted in saline, plated on LB agar, and incubated over-night at 37 °C for enumeration."}, "[3]": {"tested_on": "E. coli 25922", "type": "cell-based, Escherichia coli", "procedure": "(§1) MIC was determined according to the broth microdilution method: antimicrobials were subjected to serial twofold dilutions in LB medium, and incubated with 5 × 10^5 CFU/ml of bacteria (final volume of 200 µl) for 18–24 h at 37 °C. Then, O.D.620 nm was measured (BioTek Instruments Synergy HT; Winooski, VT, USA), and the MIC was defined as the lowest antimicrobial concentration for which no increase in O.D.620 nm was evident, compared to the untreated control.\nLipopeptides and antibiotics combinations were assessed using a modified version of the checkerboard titration method: Antibiotics MIC was determined in LB medium containing sub-inhibitory lipopeptide concentrations. The sensitization factor (SF)[46] was then calculated by SF = MICA/MICC, where “MICA” is the antibiotic MIC in absence of an adjuvant and “MICC “ is the antibiotic MIC in presence of an adjuvant, for a specified adjuvant concentration. Combinations were classified as synergistic when antibiotics MIC were decreased by > 4 folds. Alternatively, the fractional inhibitory concentration index (FICI) was calculated by FICI = MICC1/MICA1 + MICC2/MICA2, where “MICC1” and “MICC2” respectively specify the antibiotic and the adjuvant MIC values upon their combination, whereas “MICA1” and “MICA2” respectively specify the antibiotic and the adjuvant MIC values when tested individually. Combinations were classified as synergistic for FICI < 0.5."}, "[4]": {"tested_on": "UPEC CFT073", "experiment": "Urinary-tract infection model", "type": "in vivo, mice", "procedure": "(§2) The study is reported in accordance with ARRIVE guidelines.\n(§3) Lipopeptides potential application in monotherapy and/or combination-therapies was explored with two infection models. In the peritonitis-sepsis model, mice (n = 10 per group) were first rendered neutropenic by two intraperitoneal (I.P.) injections of 0.3 ml containing 150 mg/kg and 100 mg/kg cyclophosphamide, administered 4 days and 1 day before the experiment, respectively. […] Mice survival was recorded for up to 7 days. In a variant assay, bacteria in PBS (1.4 × 10^6) were pre-treated with 10 µM lipopeptides for 15 min, similarly administered, and mice survival was recorded for up to 3 days. In the urinary-tract infection (UTI) model, mice (N = 5 mice per group) were anesthetized by a single I.P. injection (0.2 ml) containing a mixture of ketamine (100 mg/kg) and xylazine (5 mg/kg). Following application of an analgesic 2% lidocaine gel on their penises, mice were infected intra-urethraly using a 24-gauge catheter with 1.2 × 10^8 CFU/mouse (0.05 ml) and treated with the vehicle control (S.C., 1 h post-infection), 2 mg/kg rifampin (oral gavage, immediately before anesthesia), 7.5 mg/kg q.i.d. lipopeptides (S.C., starting 1 h post-infection), or both. Mice were sacrificed 24 h post-infection, their bladder and kidneys aseptically excised, suspended in 5 ml of sterile PBS, homogenized for 3 min using a bench-top homogenizer, serially tenfold diluted in saline, plated on LB agar, and incubated over-night at 37 °C for enumeration."}, "[5]": {"experiment": "Acute toxicity, maximal tolerated dose", "type": "in vivo, mice", "settings": "S.C., up to 40 mg/kg, seven-day monitoring", "procedure": "as §2\nThe maximal tolerated dose (MTD) was determined after sub-cutaneous (S.C.) administration of lipopeptides solutions (0.2 ml). Mice (N = 3 per group) were monitored for up to 7 days and their physiological condition was scored on a scale of 1 to 6, in which a score of 1 indicates no apparent signs of distress, and a score of 6 signifies severe distress necessitating the mice immediate euthanasia."}, "[6]": {"tested_on": "E. coli 25922", "experiment": "Peritonitis-sepsis infection model in neutropenic mice", "type": "in vivo", "settings": "n = 10", "procedure": "as §2, §3"}, "[7]": {"tested_on": "E. coli", "experiment": "MIC, broth microdilution", "type": "cell-based, Escherichia coli", "settings": "broth microdilution in LB, 18–24 h, 37 °C; n = 4 strains; published data in bold (not discernible)", "text": "(§4) Bacteria used in this study consisted of standard American Type Culture Collection (ATCC; Biological Industries, Beit Haemek, Israel) strains, clinically isolated (CI; Sourasky Medical Center, Tel Aviv, Israel) strains, as well as isogenic mutant strains. Gram-negative bacteria included Acinetobacter baumannii ATCC 19606; Escherichia coli ATCC 25922, 35218, CFT073, CI 14384, 16327, and the isogenic pair Ag100 (wild-type) and its efflux deficient mutant Ag100a (ΔacrAB); Klebsiella pneumoniae CI 1287, 224; Pseudomonas aeruginosa ATCC 27853, CI 1278, 8634; Salmonella enterica serovar Typhimurium ATCC 14028 (wild-type) and its isogenic efflux deficient mutant ΔacrAB. Bacteria were grown in Luria–Bertani broth (LB; 5 g/l NaCl, 5 g/l yeast extract, 10 g/l tryptone; pH = 7.0) at 37 °C with shaking. Over-night cultures were diluted 10-folds into fresh growth-medium and incubated at 37 °C with shaking until reaching mid-logarithmic phase. Then, bacterial concentrations were adjusted using O.D.600 nm measurements, and bacteria were subjected to the experimental procedures listed herein.\nas §1"}, "[8]": {"tested_on": "A. baumannii", "experiment": "MIC, broth microdilution", "type": "cell-based, Acinetobacter baumannii", "settings": "broth microdilution in LB, 18–24 h, 37 °C; n = 1 strain", "text": "as §4, §1"}}, "note": "Where a SMILES comes first, the peptide text is derived from it. [ ]: non-standard residue; d: D form. The star is where a group is joined. 12Ado = NCCCCCCCCCCCC(=O)O; Decanoyl = CCCCCCCCCC(=O)*; Dab = NCC[C@H](N)C(=O)O"}
{"compound": "CCCCCCCCCC(=O)N[C@@H](CCN)C(=O)N[C@@H](CCN)C(=O)NCCCCCCCCCCCC(=O)N[C@@H](CCN)C(N)=O", "note": "[C10BBc12B, decanoyl-bis.diaminobutyrate-aminododecanoyl-diaminobutyrate-amide] (Decanoyl-[Dab][Dab][12Ado][Dab]-NH2)", "values": [{"measurement": "LC50 Erythrocytes (50% hemolysis)", "setting": "[1]", "result": "> 50", "unit": "µM"}, {"measurement": "effect on bacterial proliferation, individual agent", "setting": "[2]", "result": "unable to significantly alter bacterial proliferation"}, {"measurement": "relationship with EPI PAβN in rifampin potentiation", "setting": "[3]; 10 µM C10BBc12B ± 5 µg/ml PAβN, SF for rifampin", "result": "antagonistic relationship"}, {"measurement": "sensitization efficiency to rifampin", "setting": "[3]; E. coli, from isobologram data", "result": "65,000 folds"}, {"measurement": "bladder bacterial load", "setting": "[4]; 24 h post-infection, 2 mg/kg rifampin, 7.5 mg/kg q.i.d. C10BBc12B or both, n = 5", "result": "no reduction in bacterial load"}, {"measurement": "efficacy of single dose regimen", "setting": "[4]; single dose 7.5 or […] 1 h post infection, alone or in combination with rifampin", "result": "essentially ineffective"}, {"measurement": "signs of distress", "setting": "[5]", "result": "no apparent physiological signs of distress"}, {"measurement": "survival rate, monotherapy", "setting": "[6]; 1.7 × 10^6 CFU/mouse, […] C10BBc12B S.C. 1 h post-infection or 20 mg/kg rifampin oral gavage", "result": 40, "unit": "%"}, {"measurement": "efficacy, monotherapy, higher inoculum", "setting": "[6]; 1.9 × 10^6 CFU/mouse, […] C10BBc12B S.C. or 20 mg/kg rifampin oral", "result": "virtually no efficacy"}, {"measurement": "mice mortality after infection with bacteria pre-treated with lipopeptide", "setting": "[6]; modified model, 1.4 × 10^6 CFU/mouse pre-treated 15 min with 10 µM in PBS, I.P., three days", "result": "delayed the onset of mice mortality and reduced the overall lethality rate"}, {"measurement": "MIC E. coli (n=4)", "setting": "[7]", "result": 50, "unit": "µM"}, {"measurement": "MIC A. baumannii (n=1)", "setting": "[8]", "result": "> 50", "unit": "µM"}]}
